Values joined by “and” are separate entries in the source; they are usually repeats but may differ in a detail not shown here. Equal values may be shown once.
Assays:
Assay type in all cases: in vivo, human
IGFBP-3 [1] = assay: Example 2 second double blind, placebo controlled, randomized study: serum IGFBP-3; settings: for IGFBP-3: serum
Method: (§1) A second double blind, placebo controlled, randomized study was designed to investigate the ability of growth hormone secretagogues to be used for the treatment of cell proliferative disorders.
(§2) Subjects were separated into groups and administered a placebo or RC-1291 (Formula III). Each group was administered the appropriate number of capsules. The capsules were microcrystalline cellulose, magnesium stearate and RC-1291 HCl (25 mg) in a hard gelatin capsule. The placebo capsule was microcrystalline cellulose in a hard gelatin capsule. The RC-1291 groups received 50 mg or 100 mg of RC-1291 daily.
(§3) Serum was obtained at office visits, clearly labeled, and stored frozen at −20° C. prior to shipment on dry ice to CRL, Lenexa, Kans. for analysis. Samples were assayed for IGF-1 and IGFBP-3.

IGF-1 [2] = assay: Example 2 second double blind, placebo controlled, randomized study: serum IGF-1; settings: for IGF-1: serum
Method: as §1, §2, §3

IGF-1 [3] = assay: Example 1 double blind, placebo controlled, randomized study: IGF-1 levels
Method: (§4) A double blind, placebo controlled, randomized study was designed to investigate the ability of growth hormone secretagogues to be used for the treatment of cell proliferative disorders.
(§5) Subjects were separated in to two groups: the placebo group and the RC-1291 group. The RC-1291 group received 50 mg of RC-1291 in two 25 mg capsules daily. The capsules were microcrystalline cellulose, magnesium stearate and RC-1291 HCl (25 mg) in a hard gelatin capsule. The placebo group received two placebo capsules daily. The placebo capsule was microcrystalline cellulose in a hard gelatin capsule.
(§6) One hour before breakfast subjects were administered the two capsules after fasting during the night.
(§7) At various points over the course of the three month study, levels of IGFBP-3 and IGF-1 were measured in both the placebo and RC-1291 groups.

[4] = Example 3 cancer cachexia: total body weight, subjects of Example 2; settings: 50 and 100 mg, FIG. 12
Method: (§8) The placebo controlled, randomized studies described above were used to investigate the ability of growth hormone secretagogues to treat subjects having cancer cachexia.
(§9) Total body mass and lean body mass were measured for subjects described in Example 1 (see FIGS. 10, and 11, respectively.) Lean body mass and total body mass were measured by dual-energy x-ray absorptiometry (DEXA). Total body weight was measured for subjects described in Example 2 (see, FIG. 12).

[5] = Example 3 cancer cachexia: lean body mass and total body mass by DEXA, subjects of Example 1; settings: FIG. 11
Method: as §8, §9

IGFBP-3 [6] = assay: Example 1 double blind, placebo controlled, randomized study: IGFBP-3 levels
Method: as §4, §5, §6, §7

[7] = Example 2, 50 mg or 100 mg daily, vs placebo
[8] = 50 mg RC-1291 daily, capsules, at 4 weeks, N = 32
[9] = 50 mg RC-1291 daily, capsules, at 8 weeks, N = 32
[10] = 50 mg RC-1291 daily, capsules, at 12 weeks, N = 32
[11] = Example 1, 50 mg daily, vs placebo

Structure (SMILES): CN(C)N(C)C(=O)[C@@]1(Cc2ccccc2)CCCN(C(=O)[C@@H](Cc2c[nH]c3ccccc23)NC(=O)C(C)(C)N)C1 [RC-1291]
- IGFBP-3 (IGFBP-3 [1]; 50 mg daily, week 1): 580 ng/mL and 20.19 nM
- IGFBP-3 (IGFBP-3 [1]; 50 mg daily, week 2): 540 ng/mL and 18.79 nM
- IGFBP-3 (IGFBP-3 [1]; 50 mg daily, week 4): 610 ng/mL and 21.23 nM
- IGFBP-3 (IGFBP-3 [1]; 100 mg daily, week 1): 900 ng/mL and 31.32 nM
- IGFBP-3 (IGFBP-3 [1]; 100 mg daily, week 2): 670 ng/mL and 23.32 nM
- IGFBP-3 (IGFBP-3 [1]; 100 mg daily, week 4): 970 ng/mL and 33.76 nM
- levels of IGFBP-3 (in words) (IGFBP-3 [1]; [7]): raised the levels of both IGFBP-3 and IGF-1 in a statistically significant manner
- IGF-1 (IGF-1 [2]; 50 mg daily, week 1): 40.69 ng/mL and 5.32 nM
- IGF-1 (IGF-1 [2]; 50 mg daily, week 2): 57 ng/mL and 7.45 nM
- IGF-1 (IGF-1 [2]; 50 mg daily, week 4): 46.5 ng/mL and 6.08 nM
- IGF-1 (IGF-1 [2]; 100 mg daily, week 1): 80.25 ng/mL and 10.49 nM
- IGF-1 (IGF-1 [2]; 100 mg daily, week 2): 76.25 ng/mL and 9.97 nM
- IGF-1 (IGF-1 [2]; 100 mg daily, week 4): 73.4 ng/mL and 9.60 nM
- levels of IGF-1 (in words) (IGF-1 [2]; [7]): raised the levels of both IGFBP-3 and IGF-1 in a statistically significant manner
- IGF-1 change from baseline (nM) At 4 weeks (IGF-1 [3]; [8]): 6.626 nM
- IGF-1 change from baseline (nM) At 8 weeks (IGF-1 [3]; [9]): 4.729 nM
- IGF-1 change from baseline (nM) At 12 weeks (IGF-1 [3]; [10]): 5.046 nM
- levels of IGF-1 (in words) (IGF-1 [3]; [11]): raises the levels of both IGFBP-3 and IGF-1 in a statistically significant manner
- change in total body weight (in words) [4]: gained lean body mass and total body weight
- change in lean body mass (in words) [5]: gained lean body mass and total body weight
- IGFBP-3 change from baseline (nM) At 4 weeks (IGFBP-3 [6]; [8]): 26.89 nM
- IGFBP-3 change from baseline (nM) At 8 weeks (IGFBP-3 [6]; [9]): 17.7 nM
- IGFBP-3 change from baseline (nM) At 12 weeks (IGFBP-3 [6]; [10]): 20.66 nM
- effects on IGFBP-3 relative to effects on IGF-1, on a molar basis (IGFBP-3 [6]; Example 1, 50 mg daily): greater than 3 fold
- levels of IGFBP-3 (in words) (IGFBP-3 [6]; [11]): raises the levels of both IGFBP-3 and IGF-1 in a statistically significant manner
